Assays:
[1] = test system: DSS-induced UC model mice; test: Anti-ulcerative colitis activity, DSS mouse colitis model; format: in vivo, C57BL/6 mice; design: key to DAI score: DAI = (weight loss + stool + occult blood scores)/3; details: for MPO activity in colon tissue / Colon length: 10 days
Protocol: Except for the normal group, the other mice were free to drink 2.5% DSS for 7 days, which was then replaced to distilled water to be drunk freely for 3 days to establish the UC model. […] The mice in the normal group and model groups were administered intragastrically the same volume of the solvent 0.5% CMC-Na.
The general living conditions of the mice in each group were observed and the disease activity indexs (DAI) were evaluated. The daily specific observation indicator was weight, stool property and occult blood state of mice, and then the scores of the weight loss, stool property and occult blood state were added to determine the average value, so as to obtain the DAI score of each mouse, that is, DAI=(weight loss score+stool property score+occult blood state score)/3, to evaluate the disease activity.
Test method of occult blood: Using o-toluidine method, a little feces was picked up into a 24-well culture plate with a cotton swab, into which was first added 200 μL of the solution of o-toluidine glacial acetic acid, and then quickly added 200 μL of 3% hydrogen peroxide solution. Those turned blue-brown within 2 minutes were positive.
1 h after the last administration, blood was collected from the venous plexus of fundus oculi, stood at room temperature for 2 h, and centrifuged at 3000 rpm for 20 min. The serum was aspirated, aliquoted, and frozen at −70° C. for subsequent use. After the blood collection, the mice were sacrificed by cervical dislocation, and the abdominal cavity was opened. The colon tissues were removed 1 cm away from the anus, rinsed twice with pre-cooled PBS, and frozen at −70° C. for subsequent use.
The shortening of colon length is one of the main characteristics of DSS-induced UC model mice. After dissecting the abdominal cavity of the UC mice, the colon and distal ileum tissues were dissociated. The external morphological changes of the colon tissues were observed, the colon length was measured and recorded, and the photos were taken.
40 mg of colon tissues of the mice in each group was taken, into which was added 400 μL of pre-cooled normal saline to prepare tissue homogenates. After centrifugation at 4° C. and 1200 rpm for 5 min, the supernatants were collected. According to the method described in the kit instructions, various reagents were added sequentially, and finally the absorbance value of each well was determined at the wavelength of 460 nm of the microplate reader to calculate the MPO activity.
MPO activity (U/g wet weight)=(OD value of test tube−OD value of control tube)/11.3×sampling amount(g)

[2] = test system: mouse acute kidney injury models; test: Mouse acute kidney injury model (folic acid); format: in vivo, C57BL/6 mice; design: Havcr1 mRNA expression / Ngal mRNA expression / Tnf mRNA expression / Il1 mRNA expression / Il6 mRNA expression / α-Sma mRNA expression / Col1a1 mRNA expression / Tgfb1 mRNA expression: scale not given here; BUN (urea level in serum): unit not given here; details: for Scr (creatinine level in serum): in µmol/L (unit assumed); for Col1a1 mRNA expression / Havcr1 mRNA expression / Il1 mRNA expression / Il6 mRNA expression / Ngal mRNA expression / Tgfb1 mRNA expression / Tnf mRNA expression / α-Sma mRNA expression: kidney
Protocol: Acute kidney injury: The mice were randomly divided into 7 groups, one of which was randomly selected as the normal group, and the other 6 groups were the model group, the parent drug 1 (0.4 and 4 μmol/kg), the hydrochloride 22 (4 μmol/kg), and the fumarate 23 (0.4 and 4 μmol/kg) groups, respectively, with 6 mice in each group. In addition to the mice in the normal group, other mice were injected intraperitoneally with folic acid dissolved in 0.9% NaHCO3 solution (250 mg/kg) to establish mouse acute kidney injury models. 1 h before model establishment, the parent drug 1 (0.4 and 4 μmol/kg), the hydrochloride 22 (4 μmol/kg) and the fumarate 23 (0.4 and 4 μmol/kg) were administered intragastrically for 3 consecutive days. The mice in the normal group and model group were administered intragastrically the same volume of the solvent 0.5% CMC-Na.
1 h after the last administration, blood was collected from the venous plexus of fundus oculi, stood at room temperature for 2 h, and centrifuged at 3000 rpm for 20 min. The serum was aspirated, aliquoted, and frozen at −70° C. for subsequent use. After blood collection, the mice were sacrificed by cervical dislocation, and the abdominal cavity was opened. The kidneys were taken out, rinsed twice with pre-cooled PBS after the perirenal fats and capsules were peeled off, and then fixed with 4% paraformaldehyde for 24-48 h, embedded in paraffin and stained with HE. The remaining tissues were frozen at −70° C. for subsequent use.
μL serum was taken from each sample for the detection of creatinine and urea levels. Samples were added in accordance with the instructions of the kit strictly. After incubation at 37° C., the absorbance value was measured in a microplate reader, and the content levels of detection indicators in each group were calculated according to the standard curve.
The extraction of total RNA from animal tissues, cDNA synthesis and PCR amplification are as in above examples.

C=C1C(=O)O[C@@H]2[C@@H]3[C@]4(CC[C@@]3(C)O)C[C@]4(C)CC[C@@H]12 [Compound 1]
MPO activity in colon tissue ([1]; 20 nmol/kg i.g.): 1.40 ± 0.31 U/g tissue
Colon length ([1]; 20 nmol/kg/d i.g.): 6.15 ± 0.35 cm
MPO activity in colon tissue ([1]; 40 nmol/kg i.g.): 1.08 ± 0.12 U/g tissue
Colon length ([1]; 40 nmol/kg/d i.g.): 6.78 ± 0.28 cm
DAI score ([1]; day 1, 20 nmol/kg i.g.): 0.00 ± 0.00
DAI score ([1]; day 1, 40 nmol/kg i.g.): 0.00 ± 0.00
DAI score ([1]; day 2, 20 nmol/kg i.g.): 0.33 ± 0.14
DAI score ([1]; day 2, 40 nmol/kg i.g.): 0.33 ± 0.19
DAI score ([1]; day 3, 20 nmol/kg i.g.): 0.75 ± 0.28
DAI score ([1]; day 3, 40 nmol/kg i.g.): 0.58 ± 0.21
DAI score ([1]; day 4, 20 nmol/kg i.g.): 1.08 ± 0.37
DAI score ([1]; day 4, 40 nmol/kg i.g.): 1.00 ± 0.19
DAI score ([1]; day 5, 20 nmol/kg i.g.): 1.75 ± 0.50
DAI score ([1]; day 5, 40 nmol/kg i.g.): 1.25 ± 0.34
DAI score ([1]; day 6, 20 nmol/kg i.g.): 2.25 ± 0.44
DAI score ([1]; day 6, 40 nmol/kg i.g.): 1.67 ± 0.36
DAI score ([1]; day 7, 20 nmol/kg i.g.): 2.50 ± 0.17
DAI score ([1]; day 7, 40 nmol/kg i.g.): 1.83 ± 0.44
DAI score ([1]; day 8, 20 nmol/kg i.g.): 2.75 ± 0.39
DAI score ([1]; day 8, 40 nmol/kg i.g.): 1.92 ± 0.50
DAI score ([1]; day 9, 20 nmol/kg i.g.): 1.83 ± 0.17
DAI score ([1]; day 9, 40 nmol/kg i.g.): 1.17 ± 0.32
DAI score ([1]; day 10, 20 nmol/kg i.g.): 1.25 ± 0.16
DAI score ([1]; day 10, 40 nmol/kg i.g.): 0.50 ± 0.22
BUN (urea level in serum) ([2]; 0.4 μmol/kg i.g.): 31.46
Scr (creatinine level in serum) ([2]; 0.4 μmol/kg i.g.): 108.48
BUN (urea level in serum) ([2]; 4 μmol/kg i.g.): 21.33
Scr (creatinine level in serum) ([2]; 4 μmol/kg i.g.): 71.95
Col1a1 mRNA expression ([2]; 0.4 μmol/kg): 1.64
Havcr1 mRNA expression ([2]; 0.4 μmol/kg): 175.10
Il1 mRNA expression ([2]; 0.4 μmol/kg): 2.62
Il6 mRNA expression ([2]; 0.4 μmol/kg): 8.02
Ngal mRNA expression ([2]; 0.4 μmol/kg): 30.52
Tgfb1 mRNA expression ([2]; 0.4 μmol/kg): 1.96
Tnf mRNA expression ([2]; 0.4 μmol/kg): 2.89
α-Sma mRNA expression ([2]; 0.4 μmol/kg): 1.82
Col1a1 mRNA expression ([2]; 4 μmol/kg): 1.32
Havcr1 mRNA expression ([2]; 4 μmol/kg): 99.99
Il1 mRNA expression ([2]; 4 μmol/kg): 1.72
Il6 mRNA expression ([2]; 4 μmol/kg): 3.98
Ngal mRNA expression ([2]; 4 μmol/kg): 20.17
Tgfb1 mRNA expression ([2]; 4 μmol/kg): 1.36
Tnf mRNA expression ([2]; 4 μmol/kg): 2.76
α-Sma mRNA expression ([2]; 4 μmol/kg): 1.42

CN(C)C[C@@H]1C(=O)O[C@H]2[C@H]1CC[C@@]1(C)C[C@]13CC[C@@](C)(O)[C@H]23 [Compound 22]
BUN (urea level in serum) ([2]; 4 μmol/kg i.g.): 16.74
Scr (creatinine level in serum) ([2]; 4 μmol/kg i.g.): 64.94
Col1a1 mRNA expression ([2]; 4 μmol/kg): 1.18
Havcr1 mRNA expression ([2]; 4 μmol/kg): 62.86
Il1 mRNA expression ([2]; 4 μmol/kg): 1.06
Il6 mRNA expression ([2]; 4 μmol/kg): 1.55
Ngal mRNA expression ([2]; 4 μmol/kg): 13.05
Tgfb1 mRNA expression ([2]; 4 μmol/kg): 0.98
Tnf mRNA expression ([2]; 4 μmol/kg): 2.31
α-Sma mRNA expression ([2]; 4 μmol/kg): 1.11

CN(C)C[C@@H]1C(=O)O[C@H]2[C@H]1CC[C@@]1(C)C[C@]13CC[C@@](C)(O)[C@H]23 [Compound 23]
MPO activity in colon tissue ([1]; 20 nmol/kg i.g.): 1.29 ± 0.11 U/g tissue
Colon length ([1]; 20 nmol/kg/d i.g.): 6.51 ± 0.25 cm
MPO activity in colon tissue ([1]; 40 nmol/kg i.g.): 0.99 ± 0.18 U/g tissue
Colon length ([1]; 40 nmol/kg/d i.g.): 7.26 ± 0.26 cm
DAI score ([1]; day 1, 20 nmol/kg i.g.): 0.00 ± 0.00
DAI score ([1]; day 1, 40 nmol/kg i.g.): 0.00 ± 0.00
DAI score ([1]; day 2, 20 nmol/kg i.g.): 0.27 ± 0.09
DAI score ([1]; day 2, 40 nmol/kg i.g.): 0.16 ± 0.10
DAI score ([1]; day 3, 20 nmol/kg i.g.): 0.63 ± 0.14
DAI score ([1]; day 3, 40 nmol/kg i.g.): 0.54 ± 0.11
DAI score ([1]; day 4, 20 nmol/kg i.g.): 0.96 ± 0.16
DAI score ([1]; day 4, 40 nmol/kg i.g.): 1.20 ± 0.14
DAI score ([1]; day 5, 20 nmol/kg i.g.): 1.02 ± 0.23
DAI score ([1]; day 5, 40 nmol/kg i.g.): 0.61 ± 0.23
DAI score ([1]; day 6, 20 nmol/kg i.g.): 1.56 ± 0.41
DAI score ([1]; day 6, 40 nmol/kg i.g.): 1.07 ± 0.25
DAI score ([1]; day 7, 20 nmol/kg i.g.): 2.28 ± 0.23
DAI score ([1]; day 7, 40 nmol/kg i.g.): 1.38 ± 0.25
DAI score ([1]; day 8, 20 nmol/kg i.g.): 2.46 ± 0.26
DAI score ([1]; day 8, 40 nmol/kg i.g.): 1.57 ± 0.28
DAI score ([1]; day 9, 20 nmol/kg i.g.): 1.31 ± 0.18
DAI score ([1]; day 9, 40 nmol/kg i.g.): 1.05 ± 0.25
DAI score ([1]; day 10, 20 nmol/kg i.g.): 0.80 ± 0.16
DAI score ([1]; day 10, 40 nmol/kg i.g.): 0.35 ± 0.16
BUN (urea level in serum) ([2]; 0.4 μmol/kg i.g.): 30.08
Scr (creatinine level in serum) ([2]; 0.4 μmol/kg i.g.): 90.69
BUN (urea level in serum) ([2]; 4 μmol/kg i.g.): 18.95
Scr (creatinine level in serum) ([2]; 4 μmol/kg i.g.): 50.39
Col1a1 mRNA expression ([2]; 0.4 μmol/kg): 1.58
Havcr1 mRNA expression ([2]; 0.4 μmol/kg): 170.08
Il1 mRNA expression ([2]; 0.4 μmol/kg): 2.07
Il6 mRNA expression ([2]; 0.4 μmol/kg): 6.47
Ngal mRNA expression ([2]; 0.4 μmol/kg): 25.75
Tgfb1 mRNA expression ([2]; 0.4 μmol/kg): 1.64
Tnf mRNA expression ([2]; 0.4 μmol/kg): 2.60
α-Sma mRNA expression ([2]; 0.4 μmol/kg): 1.80
Col1a1 mRNA expression ([2]; 4 μmol/kg): 1.20
Havcr1 mRNA expression ([2]; 4 μmol/kg): 83.11
Il1 mRNA expression ([2]; 4 μmol/kg): 1.45
Il6 mRNA expression ([2]; 4 μmol/kg): 5.61
Ngal mRNA expression ([2]; 4 μmol/kg): 13.08
Tgfb1 mRNA expression ([2]; 4 μmol/kg): 1.09
Tnf mRNA expression ([2]; 4 μmol/kg): 2.42
α-Sma mRNA expression ([2]; 4 μmol/kg): 0.90

C=C1C(=O)O[C@@H]2[C@H]3C(C)=CC[C@@]34O[C@@]4(C)CC[C@@H]12 [arglabin, reference compound]
MPO activity in colon tissue ([1]; 20 nmol/kg i.g.): 0.95 ± 0.18 U/g tissue
Colon length ([1]; 20 nmol/kg/d i.g.): 6.50 ± 0.15 cm
DAI score ([1]; day 1, 20 nmol/kg i.g.): 0.00 ± 0.00
DAI score ([1]; day 2, 20 nmol/kg i.g.): 0.36 ± 0.20
DAI score ([1]; day 3, 20 nmol/kg i.g.): 0.65 ± 0.20
DAI score ([1]; day 4, 20 nmol/kg i.g.): 1.17 ± 0.19
DAI score ([1]; day 5, 20 nmol/kg i.g.): 1.39 ± 0.13
DAI score ([1]; day 6, 20 nmol/kg i.g.): 1.62 ± 0.10
DAI score ([1]; day 7, 20 nmol/kg i.g.): 2.07 ± 0.17
DAI score ([1]; day 8, 20 nmol/kg i.g.): 2.32 ± 0.10
DAI score ([1]; day 9, 20 nmol/kg i.g.): 1.45 ± 0.13
DAI score ([1]; day 10, 20 nmol/kg i.g.): 0.92 ± 0.06
